The conditions of data set [1]: after ingestion; cited from earlier work.
Another data set relates to 5-HT2-receptor. The conditions noted are these: cited from earlier work.
For data set [2] the following is noted: known use of flibanserin; cited from earlier work.
Another data set has as its target T1, 5-HT1A receptor (Homo sapiens, UniProt P08908).
T1 sequence (P08908 1-422): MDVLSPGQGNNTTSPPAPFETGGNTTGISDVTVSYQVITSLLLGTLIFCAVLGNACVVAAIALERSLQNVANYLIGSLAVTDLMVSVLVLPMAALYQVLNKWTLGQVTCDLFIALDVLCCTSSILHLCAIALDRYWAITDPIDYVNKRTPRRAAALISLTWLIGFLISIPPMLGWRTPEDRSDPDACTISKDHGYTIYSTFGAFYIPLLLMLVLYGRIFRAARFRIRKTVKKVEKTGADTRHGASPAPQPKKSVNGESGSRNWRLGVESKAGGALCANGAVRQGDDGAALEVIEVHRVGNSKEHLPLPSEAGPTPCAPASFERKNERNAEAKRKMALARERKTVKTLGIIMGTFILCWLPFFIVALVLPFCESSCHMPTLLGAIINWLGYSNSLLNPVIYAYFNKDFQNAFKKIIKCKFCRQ
Particulars: cited from earlier work.

Data set [3] has as its system Sexual Disorders and/or Dysfunctions. Description: Studies of female patients suffering from Sexual Disorders. It is filed as in vivo, human.

Take `Cn1c(=O)c2c(ncn2C)n(C)c1=O` [caffeine]: the physiological half-life result in data set [1] is “three and a half to six”.
Regarding `O=c1[nH]c2ccccc2n1CCN1CCN(c2cccc(C(F)(F)F)c2)CC1` [flibanserin, 1-[2-(4-(3-trifluoromethyl-phenyl)piperazin-1-yl)ethyl]-2,3-dihydro-1H-benzimidazol-2-one], the “affinity for the 5-HT2-receptor” value in the data set with 5-HT2-receptor is reported as “shows affinity”. Besides, the “side effects (sedation)” value in data set [2] is reported as “sometimes mild or moderate symptoms such as sedation may occur”. Moreover, the “affinity for the 5-HT1A receptor” value on 5-HT1A receptor is “shows affinity”. Further, the “effect on Sexual Disorders and/or Dysfunctions” value in data set [3] is recorded as “positive effect”.

The record behind these values is patent US20090239881A1 (Boehringer Ingelheim International GmbH, priority 2006, published 2009).
